Assay results from patent publication US20190307741A1, “[…] PD1 AND/OR PDL1 INHIBITOR AS PHARMACEUTICAL COMBINATION” (priority 2016, published 2019).

System: orthotopic MBT-2 mouse bladder tumors
Experiment: Antitumour activity (survival) in C3H/HEJ mice bearing orthotopic MBT-2 mouse bladder tumors
Assay type: in vivo
Details: female C3H/HeJ mice, vinflunine ditartrate 12 mg/kg IP (Q2D×3)×2W
Method: The antitumour activity of vinflunine alone or in combination with an anti-PD1 antibody was evaluated in C3H/HEJ mice bearing orthotopic MBT-2 mouse bladder tumors.
Vinflunine ditartrate is administered to mice at a concentration of 1.2 mg/ml in a saline buffer (0.9% NaCl).
The anti-PD1 antibody (clone: RMP1-14, catalog: BE0146, B/N: 5311-10/0914B, Bioxcell), is administered to mice at a concentration of 1 mg/ml in PBS. […] 2005 Aug. 1; 175(3):1586-92.
Vinflunine ditartrate has been injected at 12 mg/kg,
The anti-PD1 antibody has been injected at 10 mg/kg/inj.
Vinflunine ditartrate and the anti-PD1 antibody have been administered at a dose volume of 10 ml/kg/adm (i.e for one mouse weighing 20 g, 200 μl has been administered).
Vinflunine ditartrate has been injected intraperitoneally (IP) into the peritoneal cavity of mice.
The anti-PD-1 antibody has been injected intraperitoneally (IP) into the peritoneal cavity of mice. […]
Tumor cells have been e grown as monolayer at 37° C. in a humidified atmosphere (5% CO2, 95% air). […] The cells have been counted in a hemocytometer and their viability has been assessed by 0.25% trypan blue exclusion assay. […]
Antitumour activity of vinflunine ditartrate alone, anti-PD1 antibody alone or of the combination was evaluated against MBT-2 cells orthotopically implanted by instillation C3H/HEJ mice. […]

Substance: 20′,20′-difluoro-3′,4′-dihydrovinorelbine [vinflunine]
- ILS: Increase of Life Span (compared to vehicle) (%) (ILS=T/C−100 (median day of death treated/control), anti-PD1 10 mg/kg/inj IP TW×2): 46%
- Survival gain (compared to vehicle) Median (anti-PD1 antibody 10 mg/kg/inj IP TW×2, treatment from D3, relative to vehicle): 10 days
